Data reported in patent US4128666A, “4 AND 5-Halo substituted 2-indanamine compounds” (SmithKline Corporation, priority 1977, dated 1978).

How the values were obtained:
[1] = test system: adrenal epinephrine/norepinephrine ratio; test: in vivo adrenal epinephrine/norepinephrine ratio in mice (PNMT inhibition); conditions: for E/NE Ratio: male mice, 50 mg/kg p.o. daily dose, seven days, n = 5
Protocol: Male mice were dosed orally with either drug or vehicle control on a twice-a-day basis for seven consecutive days.
On the morning of the next day they were again dosed with two hours later sacrificed by decapitation. The adrenal glands were then removed and analyzed fluorometrically for both epinephrine and norepinephrine content.

[2] = target: phenylethanolamine N-methyltransferase; test: inhibition of phenylethanolamine N-methyltransferase in vitro; assay type: biochemical; conditions: for Ki: enzyme inhibition dissociation constant, calculated according to Chou
Protocol: Chem. Path. Pharm. 17:201-213, 1977, at various compound concentrations. From the data received, the enzyme inhibition dissociation constants (Ki values) were calculated according to mathematical procedures described by Chou, Mol. Pharm. 10:235-247, 1974.
The Ki value of a preferred compound of this invention, 4,5-dichloro-2-indanamine, was compared with other closely related compounds.

[3] = Experiment 1, control 2.6 ± .1, ^b (SK & F 82566) significantly different from control, p <.001

Row | SMILES | E/NE Ratio [1, 3] | Ki [2] [nM] | lowering of adrenal epinephrine/norepinephrine ratio (in words) ([1]; only this compound, under the conditions of this study) | potency of inhibition (in words) ([2]; compared with the other compounds of Table I) | E/NE Ratio ([1]; Experiment 2, control 2.0 ± .05)
1 | NC1Cc2cc(Cl)c(Cl)cc2C1 [SK & F 50070] | 2.2 | 1000 | – | – | –
2 | NC1Cc2ccc(Cl)c(Cl)c2C1 (centres unmarked) [SK & F 82566, 4,5-dichloro-2-indanamine] | 1.1 | 20 | significantly lowered the adrenal epinephrine/norepinephrine ratio | much more potent inhibitor than the other compounds | –
3 | NC1Cc2ccccc2C1 [SK & F 8851] | 2.4 | 10000 | – | – | –
4 | NC1CCc2ccc(Cl)c(Cl)c21 (centres unmarked) [SK & F 82570] | – | > 1000 | – | – | –
5 | NC1CCc2c1ccc(Cl)c2Cl (centres unmarked) [SK & F 82520] | – | 400 | – | – | 1.8
